Active and inactive are the calls of the source. No cut-off for these calls is given here.
How the values were obtained:
Assay type in all cases: functional, cell-based
[1] = system: HCT-15; assay: Cytotoxicity against human HCT15 cells after 4 hrs by MTT assay; settings: HCT-15, 4 h
[2] = system: KM12; assay: Cytotoxicity against human KM12 cells after 4 hrs by MTT assay; settings: KM12, 4 h
[3] = system: SW-620; assay: Cytotoxicity against human SW620 cells after 4 hrs by MTT assay; settings: SW-620, 4 h
[4] = system: SF-268; assay: Cytotoxicity against human SF268 cells after 4 hrs by MTT assay; settings: SF-268, 4 h
[5] = system: SF-539; assay: Cytotoxicity against human SF539 cells after 4 hrs by MTT assay; settings: SF-539, 4 h
[6] = system: U-251; assay: Cytotoxicity against human U251 cells after 4 hrs by MTT assay; settings: U-251, 4 h
[7] = system: LOX IMVI; assay: Cytotoxicity against human LOXIMVI cells after 4 hrs by MTT assay
[8] = system: MDA-MB-435; assay: Cytotoxicity against human MDA-MB-435 cells after 4 hrs by MTT assay; settings: MDA-MB-435, 4 h
[9] = system: SK-MEL-2; assay: Cytotoxicity against human SK-MEL-2 cells after 4 hrs by MTT assay; settings: SK-MEL-2, 4 h
[10] = system: IGROV-1; assay: Cytotoxicity against human IGROV1 cells after 4 hrs by MTT assay; settings: IGROV-1, 4 h
[11] = system: OVCAR-8; assay: Cytotoxicity against human OVCAR8 cells after 4 hrs by MTT assay; settings: OVCAR-8, 4 h
[12] = system: A498; assay: Cytotoxicity against human A498 cells after 4 hrs by MTT assay; settings: A498, 4 h
[13] = system: ACHN; assay: Cytotoxicity against human ACHN cells after 4 hrs by MTT assay
[14] = system: CAKI-1; assay: Cytotoxicity against human CAKI-1 cells after 4 hrs by MTT assay; settings: CAKI-1, 4 h
[15] = system: SN12C; assay: Cytotoxicity against human SN12C cells after 4 hrs by MTT assay
[16] = system: TK-10; assay: Cytotoxicity against human TK10 cells after 4 hrs by MTT assay; settings: TK-10, 4 h
[17] = system: UO-31; assay: Cytotoxicity against human UO31 cells after 4 hrs by MTT assay; settings: UO-31, 4 h
[18] = system: DU-145; assay: Cytotoxicity against human DU145 cells after 4 hrs by MTT assay; settings: DU-145, 4 h
[19] = system: MCF7; assay: Cytotoxicity against human MCF7 cells after 4 hrs by MTT assay; settings: MCF7, 4 h
[20] = system: MDA-MB-231; assay: Cytotoxicity against human MDA-MB-231 cells after 4 hrs by MTT assay; settings: MDA-MB-231, 4 h
[21] = system: Hs-578T; assay: Cytotoxicity against human Hs578T cells after 4 hrs by MTT assay
[22] = system: T47D; assay: Cytotoxicity against human T47D cells after 4 hrs by MTT assay
[23] = system: MDA-MB-468; assay: Cytotoxicity against human MDA-MB-468 cells after 4 hrs by MTT assay; settings: MDA-MB-468, 4 h
[24] = system: Ramos; assay: Induction of apoptosis in human Ramos cells assessed as disruption of mitochondrial potential after 1 hr by TMRE based flow cytometry
[25] = system: K562; assay: Cytotoxicity against human K562 cells after 4 hrs by MTT assay; settings: K562, 4 h
[26] = Cytotoxicity against human […] cells after 4 hrs by MTT assay
[27] = system: SR; assay: Cytotoxicity against human SR cells after 4 hrs by MTT assay
[28] = system: A549; assay: Cytotoxicity against human A549 cells after 4 hrs by MTT assay; settings: A549, 4 h
[29] = system: EKVX; assay: Cytotoxicity against human EKVX cells after 4 hrs by MTT assay
[30] = system: HOP-92; assay: Cytotoxicity against human HOP92 cells after 4 hrs by MTT assay; settings: HOP-92, 4 h
[31] = system: NCI-H226; assay: Cytotoxicity against human NCI-H226 cells after 4 hrs by MTT assay; settings: NCI-H226, 4 h
[32] = system: NCI-H23; assay: Cytotoxicity against human NCI-H23 cells after 4 hrs by MTT assay; settings: NCI-H23, 4 h
[33] = system: NCI-H460; assay: Cytotoxicity against human NCI-H460 cells after 4 hrs by MTT assay; settings: NCI-H460, 4 h
[34] = system: HCT-116; assay: Cytotoxicity against human HCT116 cells after 4 hrs by MTT assay; settings: HCT-116, 4 h
[35] = read-out: LC50 (the source's name)

In the case of `NCCNC(=O)C(CN)(Cc1ccc2ccccc2c1)Cc1ccc2ccccc2c1`, the IC50 [1] is reported as 0.79 µM, the TGI [1] is reported as 1.91 µM and the CC50 [1, 35] is reported as 5.01 µM. For the same compound, the IC50 [2] was 0.74 µM, the TGI [2] was 1.7 µM and the CC50 [2, 35] was 4.57 µM. The IC50 [3] was 0.35 µM, the TGI [3] was 0.83 µM and the CC50 [3, 35] was 3.39 µM. For the same compound, the IC50 [4] was 2.82 µM, the TGI [4] was 3.02 µM and the CC50 [4, 35] was 6.03 µM. For the same compound, the IC50 [5] was 2.69 µM, the TGI [5] was 2.88 µM and the CC50 [5, 35] was 5.62 µM. For the same compound, the IC50 [6] was 1.48 µM, the TGI [6] was 2.14 µM and the CC50 [6, 35] was 4.68 µM. It also gave an IC50 [7] of 0.62 µM, a TGI [7] of 1.7 µM and a CC50 [7, 35] of 4.37 µM. It also gave an IC50 [8] of 1.02 µM, a TGI [8] of 2 µM and a CC50 [8, 35] of 5.62 µM. It also gave an IC50 [9] of 3.63 µM, a TGI [9] of 3.63 µM and a CC50 [9, 35] of 6.92 µM. For the same compound, the IC50 [10] was 3.16 µM, the TGI [10] was 3.24 µM and the CC50 [10, 35] was 7.24 µM. For the same compound, the IC50 [11] was 3.39 µM, the TGI [11] was 3.72 µM and the CC50 [11, 35] was 7.24 µM. For the same compound, the IC50 [12] was 2.82 µM, the TGI [12] was 2.34 µM and the CC50 [12, 35] was 5.01 µM. For the same compound, the IC50 [13] was 2.75 µM, the TGI [13] was 2.88 µM and the CC50 [13, 35] was 5.5 µM. It also gave an IC50 [14] of 2.75 µM, a TGI [14] of 3.02 µM and a CC50 [14, 35] of 6.17 µM. For the same compound, the IC50 [15] was 3.24 µM, the TGI [15] was 3.31 µM and the CC50 [15, 35] was 6.17 µM. The IC50 [16] was 3.09 µM, the TGI [16] was 3.16 µM and the CC50 [16, 35] was 6.03 µM. The IC50 [17] was 2.95 µM, the TGI [17] was 2.95 µM and the CC50 [17, 35] was 6.03 µM. For the same compound, the IC50 [18] was 2.57 µM, the TGI [18] was 2.82 µM and the CC50 [18, 35] was 5.37 µM. The IC50 [19] was 1.35 µM, the TGI [19] was 2.24 µM and the CC50 [19, 35] was 5.5 µM. The IC50 [20] was 3.02 µM, the TGI [20] was 3.09 µM and the CC50 [20, 35] was 6.03 µM. The IC50 [21] was 3.63 µM, the TGI [21] was 3.47 µM and the CC50 [21, 35] was 7.94 µM. It also gave an IC50 [22] of 3.8 µM, a TGI [22] of 3.39 µM and a CC50 [22, 35] of 7.59 µM. It also gave an IC50 [23] of 2.75 µM, a TGI [23] of 2.95 µM and a CC50 [23, 35] of 6.17 µM. The Activity [24] was “Active”, the IC50 [25] was 0.32 µM and the TGI [25] was 0.62 µM. The IC50 [26] was 3.63 µM, the TGI [26] was 4.57 µM and the IC50 [27] was 0.35 µM. It also gave a TGI [27] of 0.62 µM, an IC50 [28] of 2.51 µM and a TGI [28] of 2.88 µM. For the same compound, the CC50 [28, 35] was 5.75 µM, the IC50 [29] was 2.69 µM and the TGI [29] was 2.88 µM. It also gave a CC50 [29, 35] of 6.17 µM, an IC50 [30] of 3.72 µM and a TGI [30] of 3.47 µM. It also gave a CC50 [30, 35] of 7.24 µM, an IC50 [31] of 3.31 µM and a TGI [31] of 3.39 µM. For the same compound, the CC50 [31, 35] was 7.24 µM, the IC50 [32] was 3.09 µM and the TGI [32] was 3.24 µM. It also gave a CC50 [32, 35] of 6.31 µM, an IC50 [33] of 0.33 µM and a TGI [33] of 0.51 µM. The CC50 [33, 35] was 1.7 µM, the IC50 [34] was 0.65 µM and the TGI [34] was 1.74 µM. The CC50 [34, 35] was 4.37 µM.

— ChEMBL document CHEMBL2150936, “Anticancer activity of small amphipathic β²,²-amino acid derivatives” (Eur J Med Chem, 2012)
